Laboratory results from patent US4020111A, “Propynyloxy alkyl arene insecticides” (priority 1975, dated 1977).

Tests used:
[1] = system: mice; experiment: extension of Secobarbital sleeping time by synergists; type: in vivo, Swiss albino white male mice; details: Secobarbital 37 mg/K; for Relative Sleeping Time: treated/control
Experimental: (§1) The selectivity of the synergist compounds of this invention is illustrated by the results of sleeping-time extension tests and of acute toxicity tests on Swiss albino white male mice.
(§2) The effect of various synergist compounds on sleeping time of sodium secobarbital [Secobarbital] and of 3,3-diethyl-5-methyl-2,4-dioxypiperidine [Noludar] was determined by administering the drug, with and without synergist, to approximately 38-day old male mice weighing from 25 to 30 grams. Synergists were administered in each of two doses, 74.0 mg/kg (dilution being 2.0 mg/0.1 ml corn oil), and 110.0 mg/kg (dilution 3.0 mg/0.1 ml oil). Secobarbital was administered at a dose of 37.0 mg/kg (dilution 1.0 mg/0.1 ml water). Noludar was administered at a dose of 110.0 mg/kg (dilution 3.0 mg/0.1 ml water). The synergist was administered one hour prior to administration of the Secobarbital or Noludar. Secobarbital and Noludar sleeping times were obtained for both the control (drug only) and the treated (synergist plus drug) mice by noting the time lapse between the administration of the drug and the recovery of the righting reflex, i.e. when the animal regains conciousness and can walk up an inclined wooden tray with coordination. The relative sleeping time (R.S.) was noted. The R.S. is the extended sleeping time in the treated mice (synergist plus drug) divided by the sleeping time in the control mice (drug only). The mean sleeping time for the treated mice and the R.S. are shown on Table XXXXIV for various synergist compounds.

[2] = system: German male cockroaches (Blatella Germanicus); experiment: topical application to thorax, 24 hour mortality of German male cockroaches; type: in vivo, German cockroach (Blatella Germanicus)
Experimental: The synergistic effect with mobam of synergist compounds I-B, II-H, II-K and IV-C is further illustrated by the 24 hour mortality data of German male cockroaches (Blatella Germanicus) shown in Table XXXX. The synergists and insecticide were diluted in acetone and applied in small droplets to the thorax of the insect. These doses of synergist alone gave zero percent insect mortality.
The synergistic effect with GS 13005 of compounds I-B, II-H, II-K, II-P, II-Q, II-R and IV-C is illustrated by the 24 hour mortality of German male cockroaches shown in Table XXXXI. These doses of synergist alone caused zero percent insect mortality.

[3] = system: mice; experiment: synergism of acute toxicity of Dimetilan, GS 13005, Secobarbital and Methadone (intraperitoneal); type: in vivo, Swiss albino white male mice; details: 48 hours
Experimental: The synergism of the acute toxicity of Dimetilan by various synergists was determined by tests on Swiss albino, white male mice aged 5 to 6 weeks and weighing 23 to 27 grams. The synergists and insecticides were dissolved in corn oil and the drugs were dissolved in distilled water. All compounds were administered intraperitoneally by injection in the lower quadrent of the abdomen. The synergist was administered in 0.1 ml of corn oil 1 hour prior to administration of the insecticide. Eight mice were treated, per dosage, with each synergist. The mice were watched for a minimum of 6 hours while held in a glass jar with bedding individually after intraperitoneal injection of the test solutions. Lethality was noted, the animals were weighed and transferred in cages, and food and water were supplied. Control mice were given 0.1 ml of corn oil at the time of administration of the synergist to the test mice and 0.1 ml corn oil plus Dimetilan at the time of administration of the insecticide to the test mice.
By the same procedure, the synergism of acute toxicity of GS 13005, Secobarbital and 6-dimethylamino-4,4-diphenyl-3-heptanone [Methadone] was determined.

[4] = system: mice; experiment: extension of Noludar sleeping time by synergists; type: in vivo, Swiss albino white male mice; details: Noludar 110 mg/K, synergist 110 mg/K; for Relative Sleeping Time: treated/control
Experimental: as §1, §2

[5] = system: Wilson strain house flies; type: in vivo, house fly (susceptible Wilson strain)
Experimental: The required solutions of the insecticide and of the synergist compound were prepared in acetone at a concentration of one milligram per milliliter. One-pint wide mouth glass jars were coated wiith the appropriate insecticide-synergist combination by rolling the jars containing aliquots of the appropriate solutions diluted to three milliliters with acetone to deposit, by evaporation, a film of the test materials. The flies were transferred under carbon dioxide anesthesia and held in the jar at room temperature. Perforated aluminum foil was used to cover the jars and to hold cotton saturated with 10% sugar solution. Counts were made at intervals, but the recorded mortality was based on 24-hour kill, rather than knockdown. All prostrate nonmoving flies were considered dead. A determination was then made of the contact synergistic ratio [SR], which is the ratio of the LC50 of insecticide alone to the LC50 of the insecticide when applied together with the synergist. The LC50 of the insecticide was estimated from a log-probit plot of percent kill versus dosage. […] The LC50 of the combination of insecticide and synergist was determined at a synergist to insecticide parts by weight ratio of five to one.

[6] = system: IN/WHO strain house flies; experiment: topical application test, percent kill after 24 hours, IN/WHO strain; type: in vivo, house fly (susceptible IN/WHO strain)
Experimental: (§3) In Table IX, and in the tables following it, the doses of topically applied insecticides and of synergists unless otherwise noted are expressed as micrograms per fly (μg/fly).
The synergistic effect of O-(2-propynyl) oximes with mobam was determined from topical application tests on susceptible, female, IN/WHO strain house flies and from tests on resistant, female, Rutgers A strain house flies. The synergist and insecticide were dissolved in ACS Grade acetone in such quantities that a 1.0μ liter volume applied to the thorax of 3-to-5 day old CO2 -anesthetized female adult house flies contained the desired dosage. After being treated, the flies were confined, 10 to a plaster petri dish, with 3-5 dishes/treatment, and held for 24-hr. observation of mortality. Reconstituted skim milk on cotton dental wicks was provided during the holding period. The percent kills after 24 hours are shown in Table X for the IN/WHO strain and Table XI for the Rutgers A strain.
The synergistic effect of benzyl 2-propynyl ethers with mobam was determined from topical application tests on IN/WHO and Rutgers A strain houseflies, following the procedure of Example 5. The percent kills after 24 hours are shown in Table XIV for the IN/WHO strain and in Table XV for the Rutgers A strain.
The effects of varying the insecticide dose and the synergist-insecticide ratio are further illustrated, with synergist compounds II-D, II-E, II-F and Mobam insecticide, in Tables XVI, XVII and XVIII.
The synergistic effect on IN/WHO flies of synergist compound II-K with Dimetilan, pyrolan, Baygon and HRS 1422 is illustrated by the 24 hour percent mortality data in Tables XIX, XX and XXI.
The effect on IN/WHO flies of synergist compound IV-C, identified in Table IV, with mobam was determined by the topical application procedure of Example 5.
The synergistic effect with Diazinon of compounds I-B, I-D, I-F, I-G, I-H and I-I, identified in Tables I and Ia, was determined from topical application tests on IN/WHO strain houseflies and on Rutgers A strain houseflies by the procedure of Example 5. The percent kills after 24 hours are shown in Table XXV for the IN/WHO strain and Table XXVI for the Rutgers A strain.
(§4) The synergistic effect with GS 13005 of compounds I-A, I-B, I-D, I-E, I-F, I-G and I-I was determined from topical application tests to IN/WHO strain, Rutgers A strain and polyvalent CH strain houseflies using the procedures of Example 5. The percent kills of the IN/WHO strain flies after 24 hours are shown in Table XXVIII; of the Rutgers A strain, in Table XXIX; and of the polyvalent CH strain, in Table XXX. The doses of insecticide alone to the CH strain files caused 10-40% mortality.
(§5) The synergistic effect with Diazinon and GS 13005 of various of the benzyl 2-propynyl ethers identified in Tables II and IIa was determined by topical application tests on IN/WHO strain, and Rutgers A strain and polyvalent, resistant, CH strain houseflies using the procedures of Example 5. The percent kills after 24 hours of IN/WHO strain flies are shown in Table XXXI; of Rutgers A strain flies, in Table XXXII; and of CH strain flies, in Table XXXIII. The doses of insecticide alone to the CH strain flies caused 10-40% mortality.
The synergist effect on IN/WHO flies of synergist compound II-K with Gardona and Bidrin is illustrated by the 24 hour percent mortality data in Tables XXXIV and XXXV.
The synergistic effect on IN/WHO strain flies and Rutgers A strain flies of compound IV-C with GS 13005 and with Diazinon was determined by the topical application procedure of Example 5. The percent kills of IN/WHO strain flies after 24 hours are shown in Tables XXXVI and XXXVII; the percent kills of Rutgers A strain flies are shown in Tables XXXVIII and XXXIX.

[7] = system: polyvalent resistant (CH strain) houseflies; experiment: whole plant or invertebrate; type: in vivo, housefly (CH strain); details: Musca domestica, topical, 24 h, read-out: mortality, insecticide used without synergist
Experimental: The effect of O-(2-propynyl) oximes with Dimetilan and with GS 13798 was obtained from tests on polyvalent resistant (CH strain) houseflies that had been chilled and to the dorsal region of which was applied an acetone solution of synergist and insecticide at a ratio of two to one. Duplicate tests were performed using 10 four to five-day old female houseflies per test. After dosage, the flies were put in a plastic petri dish with cotton soaked in a sugar-water solution. These doses of insecticide used without synergist caused 10-40% mortality.
as §3
The effect of compounds II-C, II-D and II-E with Dimetilan and GS 13798 was determined, following the procedure of Example 5, from tests on polyvalent resistant (CH strain) houseflies. These doses of insecticide used without synergist caused 10-40% mortality.
as §4, §5
The synergistic effect with pyrethrum of various synergist compounds was determined by topical application tests on polyvalent, resistant CH strain houseflies following the procedure of Example 5. Application of the insecticide alone caused 10-40% mortality.

[8] = system: mice; experiment: acute toxicity of Dimetilan alone and of synergist alone (intraperitoneal); type: in vivo, Swiss albino white male mice; details: for Lethality (number of mice dead): 48 hours, of eight mice
Experimental: To determine the acute toxicity of dimetilan alone, eight dosage levels of Dimetilan, ranging from 4 to 32 mg per kg wer applied to eight, Swiss, albino, white, male mice per dosage level. The mice weighed approximately 23 to 27 grams and were five to size weeks old. The Dimetilan was administered intraperitoneally in 0.1 ml of corn oil one hour after the administration of the same dose of corn oil alone.
To determine the acute toxicity of the synergist alone, various synergists were administered intraperitoneally at a dose of 1000 mg/kg to each of a group of eight mice. The number of animals dead at the end of 72 hours is reported in the left hand column of Table XXXXVI.

[9] = synergist alone at doses of Table XXXX
[10] = synergist alone at doses of Table XXXXI
[11] = Dimetilan 8 mg/kg + synergist 80 mg/kg ip, of eight mice
[12] = Dimetilan 8 mg/kg + synergist 240 mg/kg ip, of eight mice

SMILES | Mean Sleeping Time ([1]; synergist 74 mg/K) | Relative Sleeping Time ([1]; synergist 74 mg/K) | insect mortality, synergist alone [2, 9] | insect mortality, synergist alone [2, 10] | number of mice dead [3, 11] | number of mice dead [3, 12] | Mean Sleeping Time [4] | Relative Sleeping Time [4] | Mean Sleeping Time ([1]; synergist 110 mg/K) | Relative Sleeping Time ([1]; synergist 110 mg/K) | other results
C#CCOC(c1ccc(Cl)cc1)C(C)[N+](=O)[O-] (stereo not drawn) [IV-C] | 112 min | 4.7 | zero | zero | 5 | 7 | 74 min | 2.5 | – | – | –
C#CCOCc1cccc2ccccc12 [II-R, α-naphthylmethyl 2-propynyl ether] | 35 min | 1.2 | – | zero | 0 | 2 | 49 min | 1.7 | 96 min | 1.6 | –
C#CCON=Cc1cccc([N+](=O)[O-])c1 [I-B] | 54 min | 1.5 | zero | zero | 1 | 6 | 70 min | 2.4 | 106 min | 1.7 | Contact Synergistic Ratio, Carbaryl (LC50 insecticide alone / LC50 with synergist) ([5]; in vivo): 270; Contact Synergistic Ratio, Pyrolan (LC50 insecticide alone / LC50 with synergist) ([5]; pyrolan, synergist to insecticide 5:1 by weight, 24 h): 35
Cc1cc(OC(=O)N(C)C)nn1C(=O)N(C)C [Dimetilan, 1-(dimethylcarbamoyl)-5-methyl-3-pyrazolyl dimethylcarbamate] | – | – | – | – | – | – | – | – | – | – | 24 hour percent mortality ([6]; Dimetilan alone 0.031 μg/fly): 0%; 24 hour percent mortality ([6]; Dimetilan alone 0.063 μg/fly): 17%; 24 hour percent mortality ([6]; Dimetilan alone 0.13 μg/fly): 43%; 24 hour percent mortality ([6]; Dimetilan alone 0.25 μg/fly): 100%; mortality at 2 µg/fly [7]: 10 to 40%; number of mice dead ([3]; control: Dimetilan 8 mg/kg with 0.1 ml oil, 80 mg/kg): 0; number of mice dead ([3]; control: Dimetilan 8 mg/kg with 0.1 ml oil, 240 mg/kg): 0; Lethality (number of mice dead) ([8]; Dimetilan alone 4.0 mg/kg ip): 0; Lethality (number of mice dead) ([8]; Dimetilan alone 8.0 mg/kg ip): 0; Lethality (number of mice dead) ([8]; Dimetilan alone 12.0 mg/kg ip): 1; Lethality (number of mice dead) ([8]; Dimetilan alone 16.0 mg/kg ip): 3; Lethality (number of mice dead) ([8]; Dimetilan alone 20.0 mg/kg ip): 4; Lethality (number of mice dead) ([8]; Dimetilan alone 24.0 mg/kg ip): 7; Lethality (number of mice dead) ([8]; Dimetilan alone 28.0 mg/kg ip): 8; Lethality (number of mice dead) ([8]; Dimetilan alone 32.0 mg/kg ip): 8; dose level just below that at which Dimetilan alone showed lethality ([8]; mice, ip): 8 mg/kg
